Data reported in patent publication US8680339B2, “Herbicides” (Syngenta Limited, priority 2009, dated 2014).

Columns and labels:
Type in all cases: in vivo
[1] = system: Alopecurus myosuroides (ALOMY); assay: Pre-emergence herbicidal activity, glasshouse pot test; details: Alopecurus myosuroides, 312 h, rate 250 g/ha, evaluated after 13 days, 100=total damage to plant, 0=no damage to plant
Description: (§1) Seeds of a variety of test species were sown in standard soil in pots. After cultivation for one day (pre-emergence) or after 8 days cultivation (post-emergence) under controlled conditions in a glasshouse (at 24/16° C., day/night; 14 hours light; 65% humidity), the plants were sprayed with an aqueous spray solution derived from the formulation of the technical active ingredient in acetone/water (50:50) solution containing 0.5% Tween 20 (polyoxyethelyene sorbitan monolaurate, CAS RN 9005-64-5). The test plants were then grown in a glasshouse under controlled conditions in a glasshouse (at 24/16° C., day/night; 14 hours light; 65% humidity) and watered twice daily. After 13 days for pre and post-emergence, the test was evaluated (100=total damage to plant; 0=no damage to plant). Test Plants: Lolium perenne (LOLPE), Alopecurus myosuroides (ALOMY), Echinochloa crus-galli (ECHCG), and Avena fatua (AVEFA). Pre-Emergence Activity

Avena fatua (AVEFA) [2] = assay: as above; details: Avena fatua, 312 h, rate 250 g/ha, evaluated after 13 days, 100=total damage to plant, 0=no damage to plant
Description: as §1

[3] = system: Echinochloa crus-galli (ECHCG); assay: as above; details: Echinochloa crus-galli, 312 h, rate 250 g/ha, evaluated after 13 days, 100=total damage to plant, 0=no damage to plant
Description: as §1

Lolium perenne (LOLPE) [4] = assay: as above; details: Lolium perenne, 312 h, rate 250 g/ha, evaluated after 13 days, 100=total damage to plant, 0=no damage to plant
Description: as §1

[5] = system: Alopecurus myosuroides (ALOMY); assay: Post-emergence herbicidal activity, glasshouse pot test; details: Alopecurus myosuroides, 312 h, rate 250 g/ha, evaluated after 13 days, 100=total damage to plant, 0=no damage to plant
Description: as §1, with “Post-Emergence” for “Pre-Emergence”

Avena fatua (AVEFA) [6] = assay: as above; details: Avena fatua, 312 h, rate 250 g/ha, evaluated after 13 days, 100=total damage to plant, 0=no damage to plant
Description: as §1, with “Post-Emergence” for “Pre-Emergence”

[7] = system: Echinochloa crus-galli (ECHCG); assay: as above; details: Echinochloa crus-galli, 312 h, rate 250 g/ha, evaluated after 13 days, 100=total damage to plant, 0=no damage to plant
Description: as §1, with “Post-Emergence” for “Pre-Emergence”

Lolium perenne (LOLPE) [8] = assay: as above; details: Lolium perenne, 312 h, rate 250 g/ha, evaluated after 13 days, 100=total damage to plant, 0=no damage to plant
Description: as §1, with “Post-Emergence” for “Pre-Emergence”

SMILES	pest or weed control at 250 g/ha [1] [%]	pest or weed control at 250 g/ha (Avena fatua (AVEFA) [2]) [%]	pest or weed control at 250 g/ha [3] [%]	pest or weed control at 250 g/ha (Lolium perenne (LOLPE) [4]) [%]	pest or weed control at 250 g/ha [5] [%]	pest or weed control at 250 g/ha (Avena fatua (AVEFA) [6]) [%]	pest or weed control at 250 g/ha [7] [%]	pest or weed control at 250 g/ha (Lolium perenne (LOLPE) [8]) [%]
Cc1cc(Oc2ccc(F)cc2)cc(C)c1C1=C(O)[C@H]2[C@@H](C1=O)[C@@H]1CC[C@H]2O1 [Compound A-15]	60	70	70	90	90	90	100	90
Cc1cc(Oc2ccc(Br)cc2)cc(C)c1C1=C(O)[C@H]2[C@@H](C1=O)[C@@H]1CC[C@H]2O1 [Compound A-11]	90	90	70	100	90	90	100	90
Cc1cc(Br)ccc1Oc1cc(C)c(C2=C(O)[C@H]3[C@@H](C2=O)[C@@H]2CC[C@H]3O2)c(C)c1 [Compound A-13]	60	0	70	60	80	30	50	60
CCc1cc(Oc2ccc(Cl)cc2)ccc1C1=C(O)[C@H]2[C@@H](C1=O)[C@@H]1CC[C@H]2O1 [Compound A-2]	30	0	30	60	90	90	100	80
Cc1cc(Oc2ccc(C(F)(F)F)cn2)cc(C)c1C1=C(O)[C@H]2[C@H]3CC[C@H](C3)[C@H]2C1=O [Compound A-17, meso-(3aS,4S,7R,7aR)-2-[2,6-dimethyl-4-(5-trifluoromethylpyridin-2-yloxy)phenyl]-hexahydro-4,7-methanoindene-1,3-dione]	0	0	30	0	10	10	40	10
Cc1cc(Oc2ccc(Cl)cc2)cc(C)c1C1=C(O)CC(CC2CCOCC2)C1=O (stereo not drawn) [Compound A-34]	80	30	70	70	80	60	80	70
Cc1cc(Oc2cccc(Cl)c2)cc(C)c1C1=C(O)[C@H]2[C@@H](C1=O)[C@@H]1CC[C@H]2O1 [Compound A-14]	40	0	80	70	70	30	80	70
CCc1cc(Oc2ccc3cc(Cl)ccc3n2)ccc1C1=C(O)[C@H]2[C@@H](C1=O)[C@@H]1CC[C@H]2O1 [Compound A-38]	80	0	100	70	90	80	100	80
Cc1cc(Oc2ccc3cc(Cl)ccc3n2)cc(C)c1C1=C(O)CC(CC2CCOCC2)C1=O (stereo not drawn) [Compound A-37, 2-[4-(6-chloroquinolin-2-yloxy)-2,6-dimethylphenyl]-4-(tetrahydropyran-4-ylmethyl)cyclopentane-1,3-dione]	10	10	90	0	50	60	80	40
CCc1cc(Oc2ccc(Br)cc2F)ccc1C1=C(O)[C@H]2[C@@H](C1=O)[C@@H]1CC[C@H]2O1 [Compound A-1]	20	0	30	20	70	80	100	70
Cc1cc(Oc2ncc(Cl)cc2Cl)cc(C)c1C1=C(O)[C@H]2[C@@H](C1=O)[C@@H]1CC[C@H]2O1 [Compound A-26]	90	60	100	100	100	70	90	100
Cc1cc(Oc2ccc(Br)cc2F)cc(C)c1C1=C(O)[C@H]2[C@@H](C1=O)[C@@H]1CC[C@H]2O1 [Compound A-3, meso-(1R,2S,6R,7S)-4-(4-[4-bromo-2-fluorophenoxy]-2,6-dimethylphenyl)-10-oxatricyclo[5.2.1.0^2,6]decane-3,5-dione]	80	30	90	80	100	90	100	90
Cc1cc(Oc2ccc(Br)cc2Cl)cc(C)c1C1=C(O)[C@H]2[C@@H](C1=O)[C@@H]1CC[C@H]2O1 [Compound A-12]	40	10	60	70	80	70	100	70
Cc1cc(Oc2ccc(C(F)(F)F)cn2)cc(C)c1C1=C(O)C2C(C1=O)[C@H]1CC[C@@H]2CC1 (stereo partly drawn) [Compound A-19]	0	0	10	0	10	10	60	0
Cc1cc(Oc2cc(F)ccc2F)cc(C)c1C1=C(O)[C@H]2[C@@H](C1=O)[C@@H]1CC[C@H]2O1 [Compound A-9]	20	0	50	60	60	40	90	60
